Broadly, the IC50 is the concentration needed to halve the response being measured.

Consider 18 compounds from patent US20240360134A1, “PYRAZOLOPYRIMIDINES AND THEIR USES AS PDGFR INHIBITORS” (priority 2021, published 2024).

Experiment [1] has as its target His6-TEV-PDGFRβ (557-1016) (Homo sapiens (Human), UniProt P09619). Put plainly: PDGFRβ HTRF Assay. Conditions: 800 μM ATP, 0.5 μM TK-substrate biotin peptide, 30 min pre-incubation, 3 hours reaction; read-out: PDGFR HTRF IC50. The format is biochemical. (In general: Time-resolved FRET reads energy transfer from a long-lived donor to a nearby acceptor.)
Experiment [2] deals with PDGFRβ (Rattus norvegicus (Rat), UniProt Q05030). Put plainly: PDGFRβ Cellular Assay (PDGFRb P-Y751 HTRF, PDGF-BB stimulated A10 cells). The experiment is classed as cell-based. Conditions: A10 cells, 3 hours compound, 15 ng/mL PDGFbb for 10 minutes; read-out: PDGFR Cellular IC50. In outline: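 Rat A10 cells plated overnight were treated with compound for 3 h, stimulated with rat PDGF-BB (working stock 100 ng/mL in 10% FBS medium) for 10 min, then lysed.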
PDGFRβ, sequence (Q05030 whole entry, looked up): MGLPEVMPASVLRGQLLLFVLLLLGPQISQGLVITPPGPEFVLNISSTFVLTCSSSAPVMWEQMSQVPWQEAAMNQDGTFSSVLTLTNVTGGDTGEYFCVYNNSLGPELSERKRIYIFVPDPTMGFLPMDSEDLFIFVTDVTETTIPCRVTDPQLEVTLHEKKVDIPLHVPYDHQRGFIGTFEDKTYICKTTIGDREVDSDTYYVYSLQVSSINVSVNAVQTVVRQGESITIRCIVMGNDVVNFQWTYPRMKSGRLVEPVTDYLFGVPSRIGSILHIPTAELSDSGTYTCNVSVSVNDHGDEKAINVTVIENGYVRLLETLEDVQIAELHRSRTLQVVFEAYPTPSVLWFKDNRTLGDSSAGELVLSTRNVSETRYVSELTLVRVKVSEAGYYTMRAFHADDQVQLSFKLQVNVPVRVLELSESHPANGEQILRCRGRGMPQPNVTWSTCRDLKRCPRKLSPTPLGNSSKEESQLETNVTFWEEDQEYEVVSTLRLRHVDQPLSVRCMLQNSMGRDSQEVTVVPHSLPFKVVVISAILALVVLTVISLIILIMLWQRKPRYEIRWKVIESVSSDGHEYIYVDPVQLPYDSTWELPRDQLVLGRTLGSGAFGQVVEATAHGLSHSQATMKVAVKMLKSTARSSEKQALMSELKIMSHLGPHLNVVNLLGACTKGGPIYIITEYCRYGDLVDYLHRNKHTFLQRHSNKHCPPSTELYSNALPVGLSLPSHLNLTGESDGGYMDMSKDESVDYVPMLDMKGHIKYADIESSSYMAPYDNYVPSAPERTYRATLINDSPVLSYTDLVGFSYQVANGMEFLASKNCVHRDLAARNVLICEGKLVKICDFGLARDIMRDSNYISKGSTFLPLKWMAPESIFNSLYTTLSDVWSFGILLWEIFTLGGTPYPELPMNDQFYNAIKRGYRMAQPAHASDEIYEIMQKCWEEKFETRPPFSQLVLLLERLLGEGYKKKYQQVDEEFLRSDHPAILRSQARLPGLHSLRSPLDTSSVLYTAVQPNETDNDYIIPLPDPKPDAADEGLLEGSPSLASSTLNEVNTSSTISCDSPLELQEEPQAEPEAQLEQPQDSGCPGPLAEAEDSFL

The target in experiment [3] is VEGFR2, unphosphorylated (Homo sapiens (Human), UniProt P35968). The experiment can be described thus: VEGFR ADP GLO assay. To be noted: 5 nM VEGFR2, 1.2 mM ATP, 1 mg/mL Srctide, 180 min. The format is biochemical. In outline: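 Unphosphorylated kinase (10 nM 2× solution) pre-incubated 30 min at RT with compounds (11-point, 3-fold, top 10 µM), then reacted 180 min with srctide and ATP (2×: 2 mg/mL, 2.4 mM) in HEPES pH 7.5 buffer. ADP read by luminescence. IC50 from 4-parameter fit, normalized to DMSO and 1 µM TAK-593.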
VEGFR2, unphosphorylated, sequence (P35968 whole entry, looked up): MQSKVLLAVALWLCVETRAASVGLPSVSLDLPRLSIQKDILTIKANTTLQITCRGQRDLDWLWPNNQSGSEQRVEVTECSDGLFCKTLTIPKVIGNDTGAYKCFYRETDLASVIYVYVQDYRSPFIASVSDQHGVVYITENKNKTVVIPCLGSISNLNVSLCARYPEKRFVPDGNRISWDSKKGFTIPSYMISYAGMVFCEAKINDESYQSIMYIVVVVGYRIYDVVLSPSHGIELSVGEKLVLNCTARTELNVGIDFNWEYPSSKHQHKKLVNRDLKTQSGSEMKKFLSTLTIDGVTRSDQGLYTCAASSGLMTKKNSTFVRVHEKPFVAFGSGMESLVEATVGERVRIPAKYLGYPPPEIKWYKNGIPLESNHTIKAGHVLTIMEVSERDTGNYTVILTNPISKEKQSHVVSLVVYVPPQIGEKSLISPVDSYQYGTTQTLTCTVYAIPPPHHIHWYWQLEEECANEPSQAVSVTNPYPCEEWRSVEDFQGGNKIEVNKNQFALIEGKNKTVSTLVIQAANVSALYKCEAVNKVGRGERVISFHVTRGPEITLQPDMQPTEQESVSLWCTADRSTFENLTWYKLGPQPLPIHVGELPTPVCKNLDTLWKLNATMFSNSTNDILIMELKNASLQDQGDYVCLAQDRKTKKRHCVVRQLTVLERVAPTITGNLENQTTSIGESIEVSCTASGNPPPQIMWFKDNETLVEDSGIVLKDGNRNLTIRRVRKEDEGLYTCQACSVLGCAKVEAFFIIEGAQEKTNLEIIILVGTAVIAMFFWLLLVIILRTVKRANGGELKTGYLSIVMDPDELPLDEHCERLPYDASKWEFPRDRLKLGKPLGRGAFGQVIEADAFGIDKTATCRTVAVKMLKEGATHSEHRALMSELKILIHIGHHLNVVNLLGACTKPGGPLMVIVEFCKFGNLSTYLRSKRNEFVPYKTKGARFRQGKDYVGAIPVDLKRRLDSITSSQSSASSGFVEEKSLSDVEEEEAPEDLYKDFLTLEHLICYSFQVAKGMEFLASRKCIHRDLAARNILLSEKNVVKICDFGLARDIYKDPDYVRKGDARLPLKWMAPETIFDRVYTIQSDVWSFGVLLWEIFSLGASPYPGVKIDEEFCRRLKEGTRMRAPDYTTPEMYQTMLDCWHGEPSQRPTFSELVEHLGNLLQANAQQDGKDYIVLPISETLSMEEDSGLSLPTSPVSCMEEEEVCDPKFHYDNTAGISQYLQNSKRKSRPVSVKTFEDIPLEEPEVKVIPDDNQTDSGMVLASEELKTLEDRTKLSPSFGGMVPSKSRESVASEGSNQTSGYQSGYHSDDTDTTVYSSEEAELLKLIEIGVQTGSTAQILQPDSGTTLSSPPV
(In general: ADP-Glo first removes unused ATP, then detects ADP through luciferase.)

Experiment [4] has as its target Tb-labeled inactive PDGFRβ (Homo sapiens (Human), UniProt P09619). Put plainly: biochemical. To be noted: read-out: PDGFR Lantha IC50. The experiment is classed as binding.

Tb-labeled inactive PDGFRβ, sequence (P09619 whole entry, looked up): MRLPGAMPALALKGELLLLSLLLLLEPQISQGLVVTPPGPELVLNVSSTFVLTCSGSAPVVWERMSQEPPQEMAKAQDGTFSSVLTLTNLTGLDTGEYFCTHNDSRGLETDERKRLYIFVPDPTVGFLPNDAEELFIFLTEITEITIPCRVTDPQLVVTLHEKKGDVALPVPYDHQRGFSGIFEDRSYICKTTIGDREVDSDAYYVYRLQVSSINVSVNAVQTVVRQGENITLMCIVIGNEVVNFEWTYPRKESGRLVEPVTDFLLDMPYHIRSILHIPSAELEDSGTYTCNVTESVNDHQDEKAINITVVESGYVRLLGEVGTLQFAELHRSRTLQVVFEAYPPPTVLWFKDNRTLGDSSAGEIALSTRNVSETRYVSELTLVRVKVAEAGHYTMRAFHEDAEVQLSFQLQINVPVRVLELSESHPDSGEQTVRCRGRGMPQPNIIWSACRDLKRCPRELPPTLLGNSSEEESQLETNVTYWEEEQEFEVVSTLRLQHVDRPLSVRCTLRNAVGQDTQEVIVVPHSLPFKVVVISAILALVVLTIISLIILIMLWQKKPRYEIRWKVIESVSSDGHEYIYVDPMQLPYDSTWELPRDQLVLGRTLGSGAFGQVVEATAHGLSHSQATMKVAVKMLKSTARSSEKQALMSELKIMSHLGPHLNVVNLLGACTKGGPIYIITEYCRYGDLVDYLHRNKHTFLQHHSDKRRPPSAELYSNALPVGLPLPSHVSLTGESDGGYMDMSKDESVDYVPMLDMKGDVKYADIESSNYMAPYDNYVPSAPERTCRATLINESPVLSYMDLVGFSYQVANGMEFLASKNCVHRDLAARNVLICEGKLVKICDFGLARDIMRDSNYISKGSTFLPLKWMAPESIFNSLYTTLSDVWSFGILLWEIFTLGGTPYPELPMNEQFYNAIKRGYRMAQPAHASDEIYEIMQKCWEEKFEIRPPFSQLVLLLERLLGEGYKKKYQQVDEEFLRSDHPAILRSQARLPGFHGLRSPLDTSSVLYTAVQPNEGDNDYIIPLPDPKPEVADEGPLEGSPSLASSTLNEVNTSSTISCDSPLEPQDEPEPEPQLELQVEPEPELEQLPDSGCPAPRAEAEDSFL
His6-TEV-PDGFRβ (557-1016), sequence (P09619 whole entry, looked up): as above

For the compound `Cc1ncc(C(=O)NCCN2CCCC2(C)C)cc1Nc1nn(C)c2nc(Nc3ccncc3)ncc12` [Example 28, N-(2-(2,2-dimethylpyrrolidin-1-yl)ethyl)-6-methyl-5-((1-methyl-6-(pyridin-4-ylamino)-1H-pyrazolo[3,4-d]pyrimidin-3-yl)amino)nicotinamide], the IC50 is 0.5 nM in experiment [1], 39.4 nM in experiment [2], roughly 9180 nM in experiment [3] and 3.8 nM in experiment [4].

For `COCCn1cc(Nc2ncc3c(Nc4cc(NC(=O)CN5CC(C)(C)C5)cnc4C)nn(C)c3n2)cn1` [Example 126, 2-(3,3-dimethylazetidin-1-yl)-N-(5-((6-((1-(2-methoxyethyl)-1H-pyrazol-4-yl)amino)-1-methyl-1H-pyrazolo[3,4-d]pyrimidin-3-yl)amino)-6-methylpyridin-3-yl)acetamide], the IC50 amounted to 0.33 nM in experiment [1], 6 nM in experiment [2], 6880 nM in experiment [3] and 2.1 nM in experiment [4].

Consider `Cc1ncc(NC(=O)CN(CCF)C2CCCC2)cc1Nc1nn(C)c2nc(Nc3cnn(C)c3)ncc12` [Example 133, 2-(cyclopentyl(2-fluoroethyl)amino)-N-(6-methyl-5-((1-methyl-6-((1-methyl-1H-pyrazol-4-yl)amino)-1H-pyrazolo[3,4-d]pyrimidin-3-yl)amino)pyridin-3-yl)acetamide], for which the IC50 came to 0.44 nM in experiment [1], 4.1 nM in experiment [2], 5550 nM in experiment [3] and 2.4 nM in experiment [4].

On to `Cc1ccc(C(=O)NCCN2CCCC2(C)C)cc1Nc1nn(C)c2nc(Nc3cnn(C)c3)ncc12` [Example 66, N-(2-(2,2-dimethylpyrrolidin-1-yl)ethyl)-4-methyl-3-((1-methyl-6-((1-methyl-1H-pyrazol-4-yl)amino)-1H-pyrazolo[3,4-d]pyrimidin-3-yl)amino)benzamide], for which the IC50 in experiment [1] was 0.28 nM; in experiment [2] it was 3.4 nM; in experiment [3] it was 1330 nM; in experiment [4], 2.3 nM.

Take `Cc1ncc(C(=O)NCCN2CCC23CCC3)cc1Nc1nn(C)c2nc(Nc3cnn(C)c3)ncc12` [Example 149, N-(2-(1-azaspiro[3.3]heptan-1-yl)ethyl)-6-methyl-5-((1-methyl-6-((1-methyl-1H-pyrazol-4-yl)amino)-1H-pyrazolo [3,4-d]pyrimidin-3-yl)amino)nicotinamide]: the IC50 came to 0.36 nM in experiment [1], 25.4 nM in experiment [2], 6560 nM in experiment [3] and 2.2 nM in experiment [4].

For the compound `COCCn1cc(Nc2ncc3c(Nc4cc(NC(=O)CN5CCC6(CC6)C5)cnc4C)nn(C)c3n2)cn1` [Example 124, N-(5-((6-((1-(2-methoxyethyl)-1H-pyrazol-4-yl)amino)-1-methyl-1H-pyrazolo[3,4-d]pyrimidin-3-yl)amino)-6-methylpyridin-3-yl)-2-(5-azaspiro[2.4]heptan-5-yl)acetamide], the IC50 in experiment [1] came to 0.35 nM; in experiment [2] it was 4.3 nM; in experiment [3], 4930 nM; in experiment [4], 1.6 nM.

Regarding `CC[C@@H]1CN(CCNC(=O)c2cnc(C)c(Nc3nn(C)c4nc(Nc5cnn(C)c5)ncc34)c2)CCO1` [Example 88, (R)—N-(2-(2-ethylmorpholino)ethyl)-6-methyl-5-((1-methyl-6-((1-methyl-1H-pyrazol-4-yl)amino)-1H-pyrazolo[3,4-d]pyrimidin-3-yl)amino)nicotinamide], the IC50 in experiment [1] was 0.35 nM; in experiment [2] it was 22.3 nM; in experiment [3] it was greater than 7500 nM; in experiment [4], 3 nM.

Regarding `Cc1ncc(NC(=O)CN2CCC[C@@H]2C)cc1Nc1nn(C)c2nc(Nc3ccnn3C)ncc12` [Example 143, (S)—N-(6-methyl-5-((1-methyl-6-((1-methyl-1H-pyrazol-5-yl)amino)-1H-pyrazolo[3,4-d]pyrimidin-3-yl)amino)pyridin-3-yl)-2-(2-methylpyrrolidin-1-yl)acetamide], the IC50 is 1.2 nM in experiment [1], 7.4 nM in experiment [2], greater than 7500 nM in experiment [3] and 11.7 nM in experiment [4].

As to `Cc1ccc(C(=O)NCCN2CCC[C@@H]2C)cc1Nc1nn(C)c2nc(Nc3cnn(C)c3)ncc12` [Example 65, (S)-4-methyl-3-((1-methyl-6-((1-methyl-1H-pyrazol-4-yl)amino)-1H-pyrazolo[3,4-d]pyrimidin-3-yl)amino)-N-(2-(2-methylpyrrolidin-1-yl)ethyl)benzamide], the IC50 was 0.22 nM in experiment [1], 10 nM in experiment [2], 2400 nM in experiment [3] and 2.1 nM in experiment [4].

`Cc1nn(C)cc1Nc1ncc2c(Nc3cc(C(=O)NCCN4CCC5(CC5)C4)cnc3C)nn(C)c2n1` [Example 154, N-(2-(5-azaspiro[2.4]heptan-5-yl)ethyl)-5-((6-((1,3-dimethyl-1H-pyrazol-4-yl)amino)-1-methyl-1H-pyrazolo[3,4-d]pyrimidin-3-yl)amino)-6-methylnicotinamide]: the half-maximal inhibitory concentration (IC50) was 1.41 nM in experiment [1], 120 nM in experiment [2], greater than 7500 nM in experiment [3] and 12 nM in experiment [4].

For the compound `Cc1ncc(NC(=O)C2(C(=O)N3CCN(C)CC3)CC2)cc1Nc1nn(C)c2nc(Nc3cnn(C)c3)ncc12` [Example 116, N-(6-methyl-5-((1-methyl-6-((1-methyl-1H-pyrazol-4-yl)amino)-1H-pyrazolo[3,4-d]pyrimidin-3-yl)amino)pyridin-3-yl)-1-(4-methylpiperazine-1-carbonyl)cyclopropanecarboxamide], the IC50 was 2.63 nM in experiment [1], 721 nM in experiment [2], greater than 7500 nM in experiment [3] and 59.4 nM in experiment [4].

Regarding `Cc1ncc(C(=O)NCCN2CCCC2(C)C)cc1Nc1nn(C)c2nc(Nc3ccnn3C)ncc12` [Example 157, N-(2-(2,2-dimethylpyrrolidin-1-yl)ethyl)-6-methyl-5-((1-methyl-6-((1-methyl-1H-pyrazol-5-yl)amino)-1H-pyrazolo[3,4-d]pyrimidin-3-yl)amino)nicotinamide], the IC50 in experiment [1] was 3.39 nM; in experiment [2] it was 110 nM; in experiment [3], greater than 7500 nM; in experiment [4] it was 32.9 nM.

Take `COCCN(CCNC(=O)c1cnc(C)c(Nc2nn(C)c3nc(Nc4cnn(C)c4)ncc23)c1)C1CCC1` [Example 84, N-(2-(cyclobutyl(2-methoxyethyl)amino)ethyl)-6-methyl-5-((1-methyl-6-((1-methyl-1H-pyrazol-4-yl)amino)-1H-pyrazolo[3,4-d]pyrimidin-3-yl)amino)nicotinamide]: the IC50 was 0.39 nM in experiment [1], 11.1 nM in experiment [2], greater than 7500 nM in experiment [3] and 3.6 nM in experiment [4].

With `Cc1ncc(C(=O)NCCN2CCCC[C@@H]2C)cc1Nc1nn(C)c2nc(Nc3cncnc3)ncc12` [Example 5, (S)-6-methyl-5-((1-methyl-6-(pyrimidin-5-ylamino)-1H-pyrazolo[3,4-d]pyrimidin-3-yl)amino)-N-(2-(2-methylpiperidin-1-yl)ethyl)nicotinamide], the IC50 in experiment [1] was determined as 0.65 nM; in experiment [2], 67.5 nM; in experiment [3], 2070 nM; in experiment [4] it was 5.3 nM.

As for `Cc1ncc(C(=O)NCCN2CCC3(CC3)C2)cc1Nc1nn(C)c2nc(Nc3cnn(C)c3)ncc12` [Example 90, N-(2-(5-azaspiro[2.4]heptan-5-yl)ethyl)-6-methyl-5-((1-methyl-6-((1-methyl-1H-pyrazol-4-yl)amino)-1H-pyrazolo[3,4-d]pyrimidin-3-yl)amino)nicotinamide], the IC50 in experiment [1] is 0.25 nM; in experiment [2], 27.2 nM; in experiment [3] it was greater than 7500 nM; in experiment [4], 1.8 nM.

For `Cc1ncc(C(=O)NCCN2C[C@H](C)O[C@@H](C)C2)cc1Nc1nn(C)c2nc(Nc3ccncc3)ncc12` [Example 115, N-(2-((2S,6S)-2,6-dimethylmorpholino)ethyl)-6-methyl-5-((1-methyl-6-(pyridin-4-ylamino)-1H-pyrazolo[3,4-d]pyrimidin-3-yl)amino)nicotinamide], the IC50 is 0.48 nM in experiment [1], 20.6 nM in experiment [2], greater than 7500 nM in experiment [3] and 3.9 nM in experiment [4].

For `Cn1cc(Nc2ncc3c(Nc4cc(C(=O)NCCN5CCC6(CC6)C5)ccc4F)nn(C)c3n2)cn1` [Example 122, N-(2-(5-azaspiro[2.4]heptan-5-yl)ethyl)-4-fluoro-3-((1-methyl-6-((1-methyl-1H-pyrazol-4-yl)amino)-1H-pyrazolo[3,4-d]pyrimidin-3-yl)amino)benzamide], the IC50 was 0.15 nM in experiment [1], 4.6 nM in experiment [2], greater than 7500 nM in experiment [3] and 1.2 nM in experiment [4].

Turning to `Cc1ncc(C(=O)NCCN2CC3CCC2CC3)cc1Nc1nn(C)c2nc(Nc3cncnc3)ncc12` [Example 6, N-(2-(2-azabicyclo[2.2.2]octan-2-yl)ethyl)-6-methyl-5-((1-methyl-6-(pyrimidin-5-ylamino)-1H-pyrazolo[3,4-d]pyrimidin-3-yl)amino)nicotinamide], the IC50 in experiment [1] is 0.59 nM; in experiment [2], 102 nM; in experiment [3], greater than 7500 nM; in experiment [4], 5.2 nM.
